Consider 30 compounds from patent publication US9096504B2, “Controlled chemical release of hydrogen sulfide” (Washington State University, priority 2010, dated 2015).

Series [1] is described as follows: Methylene blue experiment for H2S release in PBS buffer in presence of cysteine or GSH. Conditions: for GSH Peaking time / GSH [H2S] at peaking time / Cys Peaking time / Cys [H2S] at peaking time: PBS buffer pH 7.4, donor 150 μM; for GSH Peaking time / GSH [H2S] at peaking time: 1.5 mM GSH, experimental period 3 hours; for Cys Peaking time / Cys [H2S] at peaking time: 1.5 mM cysteine; for GSH Peaking time (min) / GSH [H2S] at peaking time (μM) / Cys Peaking time (min) / Cys [H2S] at peaking time (μM): footnote a: donors 40 μM and cysteine 4.0 mM. In kind it is physicochemical. On the procedure: Na2S Standard Curve for H2S Release
2.0 mM Na2S stock solution was prepared as described in previous section. Five aliquots of Na2S solution at 3.75 μL, 7.50 μL, 15.0 μL, 45.0 μL, and 112.5 μl were injected into the 4-mL vials containing H2O (1.0 mL), zinc acetate (1% w/v, 100 μL), N,N-dimethyl-1,4-phenylenediamine sulfate (200 μL, 20 mM) in 7.2 M HCl and ferric chloride (200 μL, 30 mM) in 1.2 M HCl, respectively. Stir the resultant solution for 15 minutes at room temperature. The absorbance (670 nm) of aliquots was determined using a UV-Vis spectrometer.
Cysteine stock solution in H2O (400 mM, 112.5 μL) and N-(benzoylthio)benzamide 2 stock solution in THF (40 mM, 112.5 μL) were added into PBS buffer solution (30 mL, pH=7.4) containing EDTA (50 mM, 60 μL), respectively. Every 3 minute, 1.0 mL of aliquots were taken to 4-mL vials containing, zinc acetate (1% w/v, 100 μL), N,N-dimethyl-1,4-phenylenediamine sulfate (200 μL, 20 mM) in 7.2 M HCl and ferric chloride (200 μL, 30 mM) in 1.2 M HCl within 3 hours. Then the absorbance (670 nm) was determined using a UV-Vis spectrometer.
The initial concentrations of H2S-donors shown below were 150 μM and the detection of H2S released from these molecules was measured in presence of 1.5 mM of cysteine or GSH, unless otherwise indicated.

Consider `O=C(NSC(=O)C1CCCCC1)c1ccccc1` [Compound 16], for which, in series [1], the “GSH Peaking time” value was determined as 36 min, the “GSH [H2S] at peaking time” value was found to be 81.9 µM, the “Cys Peaking time” value was found to be 18 min and the “Cys [H2S] at peaking time” value was 72.4 µM.

For `CC(=O)NC(C(=O)NCc1ccccc1)C(C)(C)SSC(=O)c1ccccc1` (centres unmarked) [Compound 34], the melting point (in general, the temperature of the solid-liquid transition) fell in the range of 143 to 145 °C. For the same compound, in series [1], the “GSH Peaking time” value came out at 39 min, the “GSH [H2S] at peaking time” value amounted to 137 µM, the “Cys Peaking time” value turned out to be 33 min and the “Cys [H2S] at peaking time” value was 149 µM.

`CC(C)(C)C(=O)SNC(=O)c1ccccc1` [Compound 21]: in series [1], the “GSH Peaking time” value was 90 min, the “GSH [H2S] at peaking time” value was found to be 96.6 µM, the “Cys Peaking time” value is 55 min and the “Cys [H2S] at peaking time” value was determined as 106.4 µM.

Turning to `O=C(NSC(=O)c1ccccc1)Nc1ccccc1`, in series [1], the “GSH Peaking time” value is recorded as 30 min, the “GSH [H2S] at peaking time” value was 23.4 µM, the “Cys Peaking time” value stood at 15 min and the “Cys [H2S] at peaking time” value stood at 33.9 µM.

On to `O=C(NSC(=O)c1ccc(C(F)(F)F)cc1)c1ccccc1` [Compound 4], for which, in series [1], the “GSH Peaking time” value was found to be 27 min, the “GSH [H2S] at peaking time” value worked out at 59.5 µM, the “Cys Peaking time” value came to 26 min and the “Cys [H2S] at peaking time” value turned out to be 110.0 µM.

With `Cc1ccccc1C(=O)NSC(=O)c1ccccc1` [Compound 24], in series [1], the “GSH Peaking time” value came to 30 min, the “GSH [H2S] at peaking time” value was 130.5 µM, the “Cys Peaking time” value turned out to be 24 min and the “Cys [H2S] at peaking time” value stood at 146.9 µM.

Consider `CC(=O)SNC(=O)c1ccccc1` [Compound 19], for which, in series [1], the “GSH Peaking time” value worked out at 18 min, the “GSH [H2S] at peaking time” value was determined as 116.1 µM, the “Cys Peaking time” value came out at 12 min and the “Cys [H2S] at peaking time” value amounted to 132.6 µM.

Turning to `O=C(NSC(=O)c1ccc(F)cc1)c1ccccc1` [Compound 3], in series [1], the “GSH Peaking time” value is reported as 36 min, the “GSH [H2S] at peaking time” value was 122.6 µM, the “Cys Peaking time” value worked out at 18 min and the “Cys [H2S] at peaking time” value was 143.1 µM.

As for `O=C(NSC(=O)C(c1ccccc1)c1ccccc1)c1ccccc1` [Compound 32], in series [1], the “Cys Peaking time” value was determined as 60 min and the “Cys [H2S] at peaking time” value was 45.6 µM.

On to `CC(=O)NSC(=O)c1ccccc1` [Compound 27], for which, in series [1], the “GSH Peaking time” value is 39 min, the “GSH [H2S] at peaking time” value stood at 149.6 µM, the “Cys Peaking time” value amounted to 30 min and the “Cys [H2S] at peaking time” value was determined as 145.4 µM.

Consider `CCCC(=O)SNC(=O)c1ccccc1` [Compound 22], for which, in series [1], the “GSH Peaking time” value was 40 min, the “GSH [H2S] at peaking time” value was found to be 122.3 µM, the “Cys Peaking time” value worked out at 39 min and the “Cys [H2S] at peaking time” value is 111.3 µM.

Take `COc1cccc(C(=O)SNC(=O)c2ccccc2)c1` [Compound 10]: in series [1], the “GSH Peaking time” value amounted to 20 min, the “GSH [H2S] at peaking time” value worked out at 133.6 µM, the “Cys Peaking time” value is 25 min and the “Cys [H2S] at peaking time” value came out at 111.6 µM.

As to `Cc1ccc(C(=O)SNC(=O)c2ccccc2)cc1` [Compound 8], in series [1], the “GSH Peaking time” value was 30 min, the “GSH [H2S] at peaking time” value turned out to be 100.3 µM, the “Cys Peaking time” value worked out at 27 min and the “Cys [H2S] at peaking time” value was determined as 93.9 µM.

Take `COC(=O)C(CSSC(=O)c1ccccc1)NC(=O)c1ccccc1` (centres unmarked) [Compound 33]: in series [1], the “GSH Peaking time” value is recorded as 45 min, the “GSH [H2S] at peaking time” value is 18.3 µM, the “Cys Peaking time” value was 35 min and the “Cys [H2S] at peaking time” value stood at 25.8 µM.

In the case of `COc1ccc(C(=O)SNC(=O)c2ccccc2)cc1` [Compound 11], in series [1], the “GSH Peaking time” value was determined as 40 min, the “GSH [H2S] at peaking time” value stood at 100.5 µM, the “Cys Peaking time” value is on record as 27 min and the “Cys [H2S] at peaking time” value turned out to be 92.4 µM.

`Cc1ccccc1C(=O)SNC(=O)c1ccccc1` [Compound 6]: in series [1], the “GSH Peaking time” value amounted to 45 min, the “GSH [H2S] at peaking time” value worked out at 61.9 µM, the “Cys Peaking time” value is recorded as 34 min and the “Cys [H2S] at peaking time” value was 85.0 µM.

On to `O=C(Cc1ccccc1)SNC(=O)c1ccccc1` [Compound 30], for which, in series [1], the “GSH Peaking time” value is listed as 44 min, the “GSH [H2S] at peaking time” value came out at 104.9 µM, the “Cys Peaking time” value is given as 30 min and the “Cys [H2S] at peaking time” value came out at 108.6 µM.

As to `COc1ccc(C(=O)SNC(=O)c2ccccc2)c(OC)c1` [Compound 12], in series [1], the “GSH Peaking time (min)” value is listed as 120 ^a min, the “GSH [H2S] at peaking time (μM)” value is given as 13.2 ^a μM, the “Cys Peaking time (min)” value is listed as 50 ^a min and the “Cys [H2S] at peaking time (μM)” value is recorded as 23.0 ^a μM.

As to `CC(C)C(=O)SNC(=O)c1ccccc1` [Compound 18], in series [1], the “GSH Peaking time” value stood at 52 min, the “GSH [H2S] at peaking time” value was determined as 101.1 µM, the “Cys Peaking time” value is 36 min and the “Cys [H2S] at peaking time” value was determined as 131.6 µM.

As to `O=C(NSC(=O)c1ccccc1)c1ccc(F)cc1` [Compound 26], in series [1], the “GSH Peaking time” value is 42 min, the “GSH [H2S] at peaking time” value turned out to be 104.1 µM, the “Cys Peaking time” value is reported as 34 min and the “Cys [H2S] at peaking time” value came to 110.6 µM.

As for `O=C(NSC(=O)c1cccc(Cl)c1)c1ccccc1` [Compound 5], in series [1], the “GSH Peaking time” value is listed as 36 min, the “GSH [H2S] at peaking time” value turned out to be 146.5 µM, the “Cys Peaking time” value is 24 min and the “Cys [H2S] at peaking time” value was 142.1 µM.

As for `CCCC(=O)NSC(=O)c1ccccc1` [Compound 29], in series [1], the “GSH Peaking time” value was found to be 39 min, the “GSH [H2S] at peaking time” value came out at 98.9 µM, the “Cys Peaking time” value was 30 min and the “Cys [H2S] at peaking time” value stood at 102.8 µM.

As to `Cc1cccc(C(=O)SNC(=O)c2ccccc2)c1` [Compound 7], in series [1], the “GSH Peaking time” value stood at 39 min, the “GSH [H2S] at peaking time” value stood at 131.0 µM, the “Cys Peaking time” value is recorded as 28 min and the “Cys [H2S] at peaking time” value is 141.8 µM.

On to `CN(C)c1ccc(C(=O)SNC(=O)c2ccccc2)cc1` [Compound 13], for which, in series [1], the “GSH Peaking time (min)” value is given as 30 ^a min, the “GSH [H2S] at peaking time (μM)” value is given as 15.0 ^a μM, the “Cys Peaking time (min)” value is on record as 22 ^a min and the “Cys [H2S] at peaking time (μM)” value was 17.5 ^a μM.

With `O=C(NSC(=O)c1ccccc1)c1cccc(Cl)c1` [Compound 25], in series [1], the “GSH Peaking time” value is 27 min, the “GSH [H2S] at peaking time” value was 84.3 µM, the “Cys Peaking time” value turned out to be 26 min and the “Cys [H2S] at peaking time” value came to 83.6 µM.

Regarding `O=C(NSC(=O)C1CCCC1)c1ccccc1` [Compound 17], in series [1], the “GSH Peaking time” value turned out to be 32 min, the “GSH [H2S] at peaking time” value came out at 110.9 µM, the “Cys Peaking time” value is reported as 18 min and the “Cys [H2S] at peaking time” value was found to be 100.6 µM.

As for `CCC(=O)SNC(=O)c1ccccc1` [Compound 20], in series [1], the “GSH Peaking time” value is given as 35 min, the “GSH [H2S] at peaking time” value is 103.6 µM, the “Cys Peaking time” value worked out at 28 min and the “Cys [H2S] at peaking time” value came out at 106.1 µM.

With `CC(C(=O)SNC(=O)c1ccccc1)c1ccccc1` (centres unmarked) [Compound 31], in series [1], the “GSH Peaking time” value is on record as 52 min, the “GSH [H2S] at peaking time” value is 103.8 µM, the “Cys Peaking time” value was determined as 36 min and the “Cys [H2S] at peaking time” value turned out to be 130.4 µM.

`CCC(=O)NSC(=O)c1ccccc1` [Compound 28]: in series [1], the “GSH Peaking time” value was 50 min, the “GSH [H2S] at peaking time” value turned out to be 116.6 µM, the “Cys Peaking time” value amounted to 34 min and the “Cys [H2S] at peaking time” value amounted to 120.9 µM.

For the compound `COc1ccccc1C(=O)SNC(=O)c1ccccc1` [Compound 9], in series [1], the “GSH Peaking time” value was 48 min, the “GSH [H2S] at peaking time” value was found to be 48.3 µM, the “Cys Peaking time” value came to 36 min and the “Cys [H2S] at peaking time” value amounted to 52.8 µM.
